The values that follow come from paper PMC12867150, “A fungi-derived cyclic peptide enhances Th9-mediated antitumor immunity by targeting ZAP70 and SREBP1” (The Journal of Clinical Investigation, 2025).

The subject of experiment [1] is AKT, mTOR, and NF-κB signaling components. The experiment in a line: Immunoblot of AKT, mTOR and NF-κB components (S7D). Format: cell-based, mouse. The conditions noted are these: result in words. How it is done:
Detailed lysis conditions, SDS–PAGE and transfer procedures, primary/secondary antibodies (including clones and catalog numbers), molecular weight markers, ECL detection, and ImageJ (NIH) quantification are described in Supplemental Methods.
(§1) MH9A4, Biolegend, Cat. No. 507605, PE/Cy7, clone MH9A4, Biolegend, Cat. No. […]
(§2) clone Mab11, Biolegend, Cat. No. 502908), Perforin (APC, clone dG9, Biolegend, Cat.
(§3) Flow cytometric acquisition was performed using a BD Fortessa or Cytek Aurora cytometer. Data were analyzed with FlowJo software (v10.8.1 or newer). Fluorescence compensation, isotype-matched controls, and fluorescence-minus-one (FMO) controls were applied as appropriate for multicolor panel validation.
Cells were washed twice with PBS and lysed in 1 × lysis buffer (NCM, Cat. No.
WB3100) supplemented with a protease inhibitor cocktail (Solarbio, Cat. No. P1260).
Protein lysates were separated by SDS-polyacrylamide gel electrophoresis (SDS-PA G E ; YEASEN, Cat. No. 20325ES62) and transferred to PVDF membranes for […]
Membranes were probed with the following primary antibodies: ERK1/2 (clone […]
BioLegend, Cat. No. 369502), MEK1/2 (clone L38C12, Cell Signaling Technology, Cat.
No. 4694S), phospho -MEK1/2 (clone 41G9, Cell Signaling Technology, Cat. No. […]
(Proteintech, Cat. No. 10745 -1-AP), Total Akt (Cell Signaling Technolo gy, Cat. No. […]
(Immunoblotting shows a protein as a band on a membrane.)

A further experiment has as its system Raji-luciferase tumor. The experiment in a line: Raji-luciferase xenograft, survival (Figure 8L). The experiment is classed as in vivo, NSG mice. To be noted: EpA-treated human Th9 CAR T cells 2 × 10^6 i.v.; n = 5; result in words. From the text: Representative plots (A) and quantification (B) (n = 4). (C) Quantitative PCR analysis of IL9, IRF4, and SPI1 mRNA expression in human Th9 cells (n = 3). (D) Flow-cytometric analysis of mitochondrial membrane potential in human Th9 cells (n = 3). (E) Luciferase-based assay analysis of intracellular ATP levels in human Th9 cells (n = 5). (F) Flow-cytometric analysis of phosphorylated ZAP70 in human Th9 cells (n = 3). (G) Flow-cytometric analysis of TNF-α expression in human Th9 cells (n = 4). (H) Cytotoxicity assay of EpA-treated or control CD19 CAR Th9 cells against Raji lymphoma target cells at indicated effector-to-target (E/T) ratios (n = 3). (I) Schematic diagram of the in vivo Raji-luciferase xenograft model in NSG mice receiving control or EpA-treated human Th9 CAR T cells. (J and K) Representative bioluminescence imaging (J) and quantification of tumor radiance (K) in NSG mice at indicated time points after adoptive transfer. […] Statistical significance was determined using 2-tailed unpaired Student’s t test (B–H), 2-way ANOVA followed by Šidák’s post hoc test (K), and log-rank test (L). […]
For xenograft models, M-NSG mice were intravenously inoculated with 1 × 10^6 Raji-CD19 tumor cells. […] Tumor progression and immune cell infiltration were subsequently monitored according to experimental endpoints.
(In general: Xenograft models place foreign cells or tissue in a host animal.)

The test system of experiment [2] is mitochondria of Th9 cells. The experiment in a line: Flow cytometry of mitochondrial membrane potential with TMRM (Figure 4N). The experiment is classed as cell-based, mouse. As for the experimental part: Mitochondrial mass and membrane potential were assessed using MitoTracker™ Deep Red FM (Thermo Fisher Scientific, catalog M22426) and TMRM (tetramethylrhodamine methyl ester; Macklin, catalog T868125), respectively, following the manufacturers’ protocols. Cells were incubated with the respective dyes, washed, and subjected to flow cytometry or fluorescence microscopy analysis. For ultrastructural assessment, mitochondrial number and diameter were quantified from high-resolution transmission electron microscopy (TEM) images using ImageJ software.
A general note: In flow cytometry, cells or beads pass a laser one at a time.

In the next experiment the test system is human Th9 cells. The experiment in a line: Intracellular ATP of human Th9 cells (Figure 8E). Format: cell-based. To be noted: result in words. As for the experimental part: (§4) For Th9 polarization, cultures were supplemented with IL-4 (10 ng/mL, PeproTech, catalog AF-200-04), TGF-β (1 ng/mL), and neutralizing anti–IFN-γ monoclonal antibody (10 μg/mL, clone B27, BioXcell, catalog BE0245). After 3 days of initial culture, cells were either collected for downstream assays or continued in extended culture with refreshed cytokines to maintain lineage commitment without antibodies. Th9 cells were collected at days 4, 5, and 6 for subsequent in vitro assays. For adoptive transfer studies, day 4–cultured Th9 cells were washed and prepared for intravenous injection.
Intracellular adenosine triphosphate (ATP) levels were measured using a chemiluminescent ATP assay kit (Beyotime, catalog S0026) according to the manufacturer’s protocol. Briefly, cells were lysed and incubated with the luciferase-based detection reagent, and the resulting luminescent signal was detected using an Infinite M200 multimode microplate reader (TECAN). ATP concentrations were calculated based on a standard curve and normalized to cell number or protein content where applicable.

The subject of the next experiment is phosphorylated ZAP70. The experiment in a line: Flow cytometry of phosphorylated ZAP70 in human Th9 cells (Figure 8F). To be noted: result in words. Format: cell-based. As for the experimental part: as §4
Details regarding staining panels (human and mouse), reagents (including clones and catalog numbers), acquisition settings, compensation/controls, and analysis procedures are provided in Supplemental Methods.
as §1, §2, §3
Cells were washed twice with PBS and lysed in 1 × lysis buffer (NCM, Cat. No. […]

Several values for one entry are separate records, joined by “and”; a condition that tells them apart may be missing. Equal values may be shown once.

On to anteiso-C15 Leu7 surfactin [EpA], for which, in experiment [1], the “AKT and NF-κB component phosphorylation” value is recorded as “not of AKT or NF-κB components”; the “total and phosphorylated mTOR levels” value is given as “remained unchanged”. In addition, the survival entry in the experiment with Raji-luciferase tumor is “significantly prolonged survival”. In experiment [2] (Figure 4N, individual replicates, (n = 5)), the TMRM was 178315 and 162266 and 165932 and 168795 and 170537. The mitochondrial membrane potential entry in experiment [2] (result in words) is given as “elevated mitochondrial membrane potential”. Besides, in the experiment with human Th9 cells, the “ATP production, human Th9” value is “increased”. In the experiment on phosphorylated ZAP70, the “ZAP70 phosphorylation, human Th9” value is “increased phosphorylation of ZAP70”.
